Measurements: US20030032065A1, “Ensemble-based strategy for the design of protein pharmaceuticals” (priority 2001, published 2003)
Ends that are not written are not given here.

Experiments:
streptavidin [1] = molecular target: T1, streptavidin (Streptomyces avidinii, UniProt P22629); format: binding; settings: peptide-streptavidin complex, association constant
streptavidin [2] = molecular target: T1, streptavidin; settings: peptide-streptavidin complex, experimentally observed binding constant; cited from earlier work

T1 sequence (P22629 25-183): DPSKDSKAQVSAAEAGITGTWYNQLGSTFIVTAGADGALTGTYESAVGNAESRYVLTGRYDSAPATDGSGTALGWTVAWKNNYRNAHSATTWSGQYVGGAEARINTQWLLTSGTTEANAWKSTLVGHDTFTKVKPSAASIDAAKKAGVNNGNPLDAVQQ

Substance	Observed KA (streptavidin [1])	Kd (streptavidin [2])
AECHPQFCIEGRK	2.13 µM⁻¹	0.47 µM
AECHPQFNCIEGRK	0.14 µM⁻¹	7 µM
AECHPQFPCIEGRK	1.08 µM⁻¹	0.93 µM
AECHPQGPPCIEGRK	4.35 µM⁻¹	0.23 µM
AHPQFGAEK	0.005 µM⁻¹	204 µM
AHPQFPAEK	0.007 µM⁻¹	136 µM
FSHPQNT	0.008 µM⁻¹	
HDHPQNL	0.004 µM⁻¹	282 µM
RCCHPQCGMAEEC	0.45 µM⁻¹	2.3 µM
RCCHPQCGMVEEC	3.3 µM⁻¹	1.3 µM
RCCHPQFEPCMGC	3.0 µM⁻¹	0.33 µM
cyclo-(AHPQFGAE)K (AHPQFGAEK; also: cyclic, ring closure not given here)	0.05 µM⁻¹	19 µM
cyclo-(AHPQFPAE)K (AHPQFPAEK; also: cyclic, ring closure not given here)	7.69 µM⁻¹	0.13 µM
cyclo-(AQYGHFAE)K (AQYGHFAEK; also: cyclic, ring closure not given here)	0.0002 µM⁻¹	> 5000 µM
cyclo-CHPQFC	3.70 µM⁻¹	0.27 µM
cyclo-CHPQGPPC (also: cyclic, closure type not given here)	1.49 µM⁻¹	0.67 µM
